Columns and labels:
[1] = test system: C57BL/6J mice; assay: Optomotor testing of visual acuity in the rotenone mouse model; assay type: in vivo; settings: for Number of counterclockwise head movements/ 2 min / Number of clockwise head movements/ 2 min: 5 weeks after injection, ± SEM; for Number of counterclockwise head movements/ 2 min: non-injected eye; for Number of clockwise head movements/ 2 min: rotenone-injected eye; for Number of head movements: 2000 mg/kg in diet, mean ± SEM
Experimental: Since RGC loss is associated with visual acuity impairment, we tested whether the neuroprotective effect of the test compound IA also correlated with recovery of visual function. For this purpose, visual acuity was detected by quantifying the optomotor response of animals subjected to the test system described above. The optomotor response was measured as previously described (see […]., et al. Vis. Res., 2005). Mice were placed on a central platform surrounded by a motorized drum with black and white vertical stripes that can rotate in both, clockwise and counterclockwise, direction at different velocities (which can be adjusted to evoke the optimal optokinetic response), and under constant light levels. Mice were allowed to habituate for 5 min to the experimental conditions before stripes were rotated alternately clockwise and counterclockwise, for 2 min in each direction and with an interval of 30 s between the two rotations. The mice were recorded on a computer using a digital video camera mounted above the apparatus to subsequently score the number of head movements by manual counting. Head movements were scored only when the angular speed of the head turn corresponds to that of the drum rotation. After aquisition and encoding by an investigator, a second, blinded investigator conducted all assessments. Codes were broken upon completion of data acquisition by a third investigator. Each mouse was tested at different time points and the apparatus will be cleaned between mice. Data will be presented as mean ± SEM. Paired Student's t-test and analysis of variance (ANOVA) will be used to compare non-normalized data. Statistical significance will be set at p≤0.05(*), p≤0.01(**) and p≤0.001 (***). Table 7: Effect of idebenone pre-treatment on visual acuity in an in vivo mouse model for LHON. Quantification of mouse visual acuity based on the optomotor response in mice pre-treated for 3 weeks with vehicle and idebenone 2000 mg/kg in diet. […] The optomotor response was examined in both clockwise (a) and counterclockwise (b) directions of motion, clockwise and counterclockwise tracking head movements reflecting visual acuity of the rotenone-injected (left) and non-injected (right) eye, respectively.

[2] = Cytotoxicity assay (WST-1); assay type: cell-based, human; settings: human, hepg2 cells, Hep-G2 cells, 24 hours exposure, read-out: TC50
Description: This assay investigates cytotoxicity which is defined as the cell-killing property of a chemical compound, independent from the mechanisms of cell death. The HepG2 hepatoblastoma cell line is one of the most common human cell lines for hepatotoxicity studies. […] This assay measures metabolic activity of living cells using the WST-1 cell proliferation reagent (Roche Diagnostics). The tetrazolium salt WST-1 is cleaved to water soluble formazan by cellular enzymes. An expansion in the number of viable cells results in an increase in the overall activity of mitochondrial dehydrogenases in the sample. This augmentation in enzyme activity leads to an increase in the amount of formazan dye formed, which directly correlates to the number of metabolically active cells in the culture. The formazan dye produced by metabolically active cells is directly quantified in a scanning multiwell spectrophotometer by measuring the absorbance of the formazan dye solution between 420 and 480 nm. Healthy HepG2 cells, when maintained in culture, continuously divide and multiply over time. A toxic chemical, regardless of site and mechanism of action, will interfere with this process and result in the reduction of the growth rate reflected in the cell number.
Experimental Procedure: Hep-G2 cells are seeded into a 96-well microplate and maintained in culture for 24 hours. They are then exposed to the test compound over a range of eight concentrations. After 24 hours exposure, the cells are incubated in presence of reagent WST-1 for 30 min before measuring the absorbance of the formazan dye formed. Cytotoxicity is expressed as a concentration dependent reduction of the conversion formazan dye formation due to a decrease in cell proliferation as compared to untreated cells. The TC50 (Toxic Concentration 50%), is defined as the concentration of tested compound required to reduce the cellular viability by 50% relative to the control culture. The lower the TC50 value, the higher is the cytotoxic potential of the test compound. […]

Row | SMILES | Number of counterclockwise head movements/ 2 min ([1]; 2000 mg/kg + rotenone 1 mM) [head movements/2 min] | Number of clockwise head movements/ 2 min ([1]; 2000 mg/kg + rotenone 1 mM) [head movements/2 min] | Number of counterclockwise head movements/ 2 min ([1]; 2000 mg/kg + rotenone 5 mM) [head movements/2 min] | Number of clockwise head movements/ 2 min ([1]; 2000 mg/kg + rotenone 5 mM) [head movements/2 min] | Number of head movements ([1]; time post-injection 1 day) | Number of head movements ([1]; time post-injection 7 days) | Number of head movements ([1]; time post-injection 14 days) | Number of head movements ([1]; time post-injection 21 days) | Number of head movements ([1]; time post-injection 28 days) | Number of head movements ([1]; time post-injection 35 days) | Number of head movements ([1]; time post-injection 56 days) | Number of head movements ([1]; time post-injection -7 days) | CC50 at 24 h [2] [µM]
1 | COC1=C(OC)C(=O)C(CCCCCCCCCCO)=C(C)C1=O [Compound IA, Idebenone] | 12.5 ± 4.5 | 9 ± 2 | 10.5 ± 0.6 | 3.5 ± 1.5 | 0 ± 0 (n=7) head movements/2 min | 0.5 ± 0.5 (n=7) head movements/2 min | 1.8 ± 0.8 (n=7) head movements/2 min | 2.8 ± 1.4 (n=7) head movements/2 min | 2.8 ± 1.4 (n=7) head movements/2 min | 3.5 ± 1.5 (n=7) head movements/2 min | 6 ± 2.1 (n=4) head movements/2 min | 9.7 ± 0.7 (n=7) head movements/2 min | –
2 | COC1=C(OC)C(=O)C(CCCCCCCCCC(C)(C)O)=C(C)C1=O [Compound IC] | – | – | – | – | – | – | – | – | – | – | – | – | 71.9

Reference: patent EP2605769B1, “BENZOQUINONE DERIVATIVES FOR THE TREATMENT OF MITCHONDRIAL EYE DISEASES” (Santhera Pharmaceuticals (Schweiz) AG, priority 2010, dated 2012)
